Data reported in PubChem BioAssay AID330 (DTP/NCI, 2004).
Where “and” joins values, the source holds several entries; their conditions need not be identical. Equal values may be shown once. Inconclusive results and toxic doses are left out. The calls were made as follows: active = survival T/C of 150% or more; inactive = T/C below 125% in these data.

Test system: P388 leukemia ip, CD2F1 mice, survival T/C
Assay: NCI In Vivo Anticancer Drug Screen. Data for tumor model P388 Leukemia (intraperitoneal) in CD2F1 (CDF1) mice
Settings: endpoint: median survival time, higher = longer survival
Outline: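 Mice carrying the transplanted tumor received test compound or vehicle. Survival was recorded in each group, and the value is the treated-group measurement divided by that of the vehicle-treated control group.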

[1] = dose: 50.0 mg/kg/injection, schedule: Q01DX009 (ip), vehicle: saline with Tween-80
[2] = dose: 100.0 mg/kg/injection, schedule: Q01DX009 (ip), vehicle: saline with Tween-80
[3] = dose: 200.0 mg/kg/injection, schedule: Q01DX009 (ip), vehicle: saline with Tween-80
[4] = dose: 50.0 mg/kg/injection, schedule: Q01DX001 (ip), vehicle: Klucel (hydroxypropylcellulose) (HPC)
[5] = dose: 50.0 mg/kg/injection, schedule: Q01DX005 (ip), vehicle: saline with Tween-80
[6] = dose: 100.0 mg/kg/injection, schedule: Q01DX005 (ip), vehicle: saline with Tween-80
[7] = dose: 200.0 mg/kg/injection, schedule: Q01DX005 (ip), vehicle: saline with Tween-80
[8] = dose: 100.0 mg/kg/injection, schedule: Q01DX009 (ip), vehicle: Klucel (hydroxypropylcellulose) (HPC)
[9] = dose: 200.0 mg/kg/injection, schedule: Q01DX009 (ip), vehicle: Klucel (hydroxypropylcellulose) (HPC)
[10] = dose: 12.5 mg/kg/injection, schedule: Q01DX009 (ip), vehicle: saline with Tween-80
[11] = dose: 25.0 mg/kg/injection, schedule: Q01DX009 (ip), vehicle: saline with Tween-80

Measured: T/C

CCCCCCCCCCCCCCCCC1=C(C(=O)OC)NC(N)=NC1O (stereo not drawn)
inactive: dose: 7.5 mg/kg/injection, schedule: Q01DX005 (ip), vehicle: saline with Tween-80 103 % of control | dose: 15.0 mg/kg/injection, schedule: Q01DX005 (ip), vehicle: saline with Tween-80 100 % of control | dose: 30.0 mg/kg/injection, schedule: Q01DX005 (ip), vehicle: saline with Tween-80 102 % of control | dose: 60.0 mg/kg/injection, schedule: Q01DX005 (ip), vehicle: saline with Tween-80 103 % of control | dose: 120.0 mg/kg/injection, schedule: Q01DX005 (ip), vehicle: saline with Tween-80 103 % of control | dose: 600.0 mg/kg/injection, schedule: Q01DX005 (ip), vehicle: saline with Tween-80 106 % of control

O=C1OC2(CC1n1cnc3ccccc3c1=O)C(=O)Nc1ccccc12 (stereo not drawn)
inactive: dose: 8.75 mg/kg/injection, schedule: Q01DX005 (ip), vehicle: Klucel (hydroxypropylcellulose) (HPC) 111 % of control | dose: 17.5 mg/kg/injection, schedule: Q01DX005 (ip), vehicle: Klucel (hydroxypropylcellulose) (HPC) 90 % of control | dose: 35.0 mg/kg/injection, schedule: Q01DX005 (ip), vehicle: Klucel (hydroxypropylcellulose) (HPC) 91 % of control

COc1ccc(N2C(=O)CC(c3cc(C)ccc3OC)CC2=O)cc1
inactive: dose: 100.0 mg/kg/injection, schedule: Q01DX001 (ip), vehicle: saline 98 % of control | dose: 200.0 mg/kg/injection, schedule: Q01DX001 (ip), vehicle: saline 98 % of control | dose: 400.0 mg/kg/injection, schedule: Q01DX001 (ip), vehicle: saline 91 % of control

O=c1oc(-c2ccccc2)cc(N(c2ccccc2)c2ccccc2)c1Cl
inactive: [1] 93 % of control | [2] 93 % of control | [3] 95 % of control

Cc1cn(CC2C=CC(CS[As](C)C)O2)c(=O)[nH]c1=O (stereo not drawn)
inactive: dose: 12.5 mg/kg/injection, schedule: Q01DX009 (ip), vehicle: distilled water + Tween-80 99 % of control | dose: 25.0 mg/kg/injection, schedule: Q01DX009 (ip), vehicle: distilled water + Tween-80 108 % of control | dose: 50.0 mg/kg/injection, schedule: Q01DX009 (ip), vehicle: distilled water + Tween-80 101 % of control | dose: 100.0 mg/kg/injection, schedule: Q01DX009 (ip), vehicle: distilled water + Tween-80 119 % of control

O=C(COc1nccc2nc(-c3ccccc3)cn12)c1ccccc1
inactive: dose: 1.56 mg/kg/injection, schedule: Q01DX009 (ip), vehicle: Klucel (hydroxypropylcellulose) (HPC) 96 % of control | dose: 3.12 mg/kg/injection, schedule: Q01DX009 (ip), vehicle: Klucel (hydroxypropylcellulose) (HPC) 89 % of control | dose: 6.25 mg/kg/injection, schedule: Q01DX009 (ip), vehicle: Klucel (hydroxypropylcellulose) (HPC) 89 % of control and 92 % of control | dose: 12.5 mg/kg/injection, schedule: Q01DX001 (ip), vehicle: Klucel (hydroxypropylcellulose) (HPC) 95 % of control | dose: 25.0 mg/kg/injection, schedule: Q01DX001 (ip), vehicle: Klucel (hydroxypropylcellulose) (HPC) 95 % of control | [4] 96 % of control

c1ccc2c(Nc3nccs3)c3ccccc3nc2c1
inactive: dose: 12.5 mg/kg/injection, schedule: Q04DX002 (ip), vehicle: distilled water + Tween-80 96 % of control | dose: 25.0 mg/kg/injection, schedule: Q04DX002 (ip), vehicle: distilled water + Tween-80 96 % of control | dose: 50.0 mg/kg/injection, schedule: Q04DX002 (ip), vehicle: distilled water + Tween-80 88 % of control | dose: 100.0 mg/kg/injection, schedule: Q04DX002 (ip), vehicle: distilled water + Tween-80 94 % of control | dose: 200.0 mg/kg/injection, schedule: Q04DX002 (ip), vehicle: distilled water + Tween-80 98 % of control | dose: 400.0 mg/kg/injection, schedule: Q04DX002 (ip), vehicle: distilled water + Tween-80 103 % of control

COC(=O)c1cc(-c2ccco2)n2c(NC(=O)Nc3ccc(Cl)cc3)nnc2n1
inactive: [5] 98 % of control | [6] 103 % of control | [7] 95 % of control

N#C/C1=C(\C#N)N=Cc2ccccc2NCCNc2ccccc2C=N1
inactive: dose: 100.0 mg/kg/injection, schedule: Q04DX003 (ip), vehicle: saline 91 % of control | dose: 200.0 mg/kg/injection, schedule: Q04DX003 (ip), vehicle: saline 98 % of control | dose: 400.0 mg/kg/injection, schedule: Q04DX003 (ip), vehicle: saline 100 % of control

Cc1cccc2c1CN1CC(=O)NC1=N2
inactive: dose: 50.0 mg/kg/injection, schedule: Q01DX009 (ip), vehicle: Klucel (hydroxypropylcellulose) (HPC) 103 % of control | [8] 97 % of control | [9] 86 % of control

CC(C)(C)C(=O)OCCN(CCOC(=O)C(C)(C)C)C(=O)COC(=O)C(C)(C)C
inactive: [1] 96 % of control | [2] 94 % of control | [3] 100 % of control

COc1ccc(/C=N/NC(=O)CNC(=O)n2ccnc2)cc1
inactive: [5] 100 % of control | [6] 92 % of control | [7] 91 % of control

C=CC1CC[N-]CC1.[Cl][Cu][Cl]
inactive: dose: 7.5 mg/kg/injection, schedule: Q01DX005 (ip), vehicle: saline 98 % of control | dose: 15.0 mg/kg/injection, schedule: Q01DX005 (ip), vehicle: saline 100 % of control

Cc1ccc([Si]23OC(C)CN(CC(C)O2)CC(C)O3)cc1 (stereo not drawn)
inactive: [5] 100 % of control | [6] 109 % of control | [7] 100 % of control

CCOC(=O)C(=O)Nc1[nH]c(C)c(C)c1C#N
inactive: dose: 50.0 mg/kg/injection, schedule: Q01DX009 (ip), vehicle: saline + alcohol 91 % of control | dose: 100.0 mg/kg/injection, schedule: Q01DX009 (ip), vehicle: saline + alcohol 96 % of control | dose: 200.0 mg/kg/injection, schedule: Q01DX009 (ip), vehicle: saline + alcohol 89 % of control

O=C(OCOC(=O)c1ccccc1)c1ccccc1
inactive: [8] 117 % of control | [9] 107 % of control | dose: 400.0 mg/kg/injection, schedule: Q01DX009 (ip), vehicle: Klucel (hydroxypropylcellulose) (HPC) 109 % of control

CCC1(CC(=O)O)OCCc2c1[nH]c1c(C)c(Cl)ccc21 (stereo not drawn)
inactive: [4] 101 % of control | dose: 100.0 mg/kg/injection, schedule: Q01DX001 (ip), vehicle: Klucel (hydroxypropylcellulose) (HPC) 101 % of control | dose: 200.0 mg/kg/injection, schedule: Q01DX001 (ip), vehicle: Klucel (hydroxypropylcellulose) (HPC) 100 % of control

CCOC(=O)C(Cc1c[nH]c2ccccc12)NCc1ccc(N(CCCl)CCCl)cc1 (stereo not drawn)
inactive: dose: 10.0 mg/kg/injection, schedule: Q01DX009 (ip), vehicle: saline with Tween-80 94 % of control | dose: 20.0 mg/kg/injection, schedule: Q01DX009 (ip), vehicle: saline with Tween-80 110 % of control | dose: 40.0 mg/kg/injection, schedule: Q01DX009 (ip), vehicle: saline with Tween-80 110 % of control | [1] 97 % of control | dose: 80.0 mg/kg/injection, schedule: Q01DX009 (ip), vehicle: saline with Tween-80 123 % of control | [2] 106 % of control

C[N+](C)(C)c1ccc(/C=C/[N+](=O)[O-])cc1
inactive: [10] 95 % of control | [11] 102 % of control

N#Cc1c(C(F)(F)F)cc(-c2cccs2)nc1SC(C(=O)Nc1c(F)cccc1F)c1ccccc1 (stereo not drawn)
inactive: dose: 50.0 mg/kg/injection, schedule: Q01DX005 (ip), vehicle: Klucel (hydroxypropylcellulose) (HPC) 94 % of control | dose: 100.0 mg/kg/injection, schedule: Q01DX005 (ip), vehicle: Klucel (hydroxypropylcellulose) (HPC) 94 % of control | dose: 200.0 mg/kg/injection, schedule: Q01DX005 (ip), vehicle: Klucel (hydroxypropylcellulose) (HPC) 94 % of control

CC1(C)Oc2ccccc2O1
inactive: [10] 96 % of control | [11] 108 % of control | [1] 107 % of control | [2] 113 % of control

O=c1c2ccccc2c(-c2ccc(N(CCCl)CCCl)cc2)cn1CCCl
inactive: dose: 25.0 mg/kg/injection, schedule: Q04DX003 (ip), vehicle: Klucel (hydroxypropylcellulose) (HPC) 100 % of control | dose: 50.0 mg/kg/injection, schedule: Q04DX003 (ip), vehicle: Klucel (hydroxypropylcellulose) (HPC) 114 % of control | dose: 100.0 mg/kg/injection, schedule: Q04DX003 (ip), vehicle: Klucel (hydroxypropylcellulose) (HPC) 107 % of control | dose: 200.0 mg/kg/injection, schedule: Q04DX003 (ip), vehicle: Klucel (hydroxypropylcellulose) (HPC) 115 % of control | dose: 400.0 mg/kg/injection, schedule: Q04DX003 (ip), vehicle: Klucel (hydroxypropylcellulose) (HPC) 100 % of control

COc1ccc(C2/C(=N/O)CCCC2C)cc1 (stereo not drawn)
inactive: [5] 94 % of control | [6] 97 % of control | [7] 87 % of control
